In US8920785B2, “Cosmetic or dermatological preparations with a content of one or more thiazole derivates” (Beiersdorf AG, priority 2010, dated 2014):

Target: T1, human tyrosinase (Homo sapiens, UniProt P14679)
T1 sequence (P14679 19-529): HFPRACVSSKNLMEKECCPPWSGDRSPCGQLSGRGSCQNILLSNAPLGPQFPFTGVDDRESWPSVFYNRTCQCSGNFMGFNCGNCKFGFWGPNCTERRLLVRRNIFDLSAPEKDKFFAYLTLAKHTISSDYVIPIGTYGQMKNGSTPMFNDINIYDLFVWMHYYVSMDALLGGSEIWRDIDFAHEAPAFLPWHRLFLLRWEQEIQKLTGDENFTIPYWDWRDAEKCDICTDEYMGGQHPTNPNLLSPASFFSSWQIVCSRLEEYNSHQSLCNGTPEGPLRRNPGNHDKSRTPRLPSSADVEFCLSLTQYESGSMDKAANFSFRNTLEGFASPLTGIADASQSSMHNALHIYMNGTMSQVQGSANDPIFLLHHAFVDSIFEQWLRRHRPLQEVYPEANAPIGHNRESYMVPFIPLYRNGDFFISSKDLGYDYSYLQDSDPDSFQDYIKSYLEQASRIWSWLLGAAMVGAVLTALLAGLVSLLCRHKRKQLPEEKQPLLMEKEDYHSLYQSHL
Test: Enzyme test: conversion of L-DOPA to L-dopaquinone by human tyrosinase (MBTH, absorption at 490 nm)
Format: biochemical
Settings: Concentration 100 μg/ml; substrate L-DOPA; read-out: Inhibition (% of control) of tyrosinase activity
Source text: The efficacy of the thiazoles has been verified using an enzyme test by measuring the conversion of L-DOPA to L-dopaquinone by a human tyrosinase. In this method that is known from the literature (Winder, A. J. and Harris H., New assays for the tyrosine hydroxylase and dopa oxidase activities of tyrosinase. Eur. J. Biochem. (1991), 198, 317-26), the reaction product L-dopaquinone is reacted with MBTH (3-methyl-2-benzothiazoline hydrazone) is converted to form a pink-colored substance, the increase of which over time is measured by absorption at 490 nm. In table one, efficacy data for some of the claimed substances are shown by way of example. It may be concluded therefrom that the substances according to the invention are extremely effective pigmentation-inhibiting substances.

inhibition at 100 µg/mL [%] | SMILES
93.1 | Oc1ccc(-c2csc(Nc3ncccn3)n2)c(O)c1 [Compound 1]
100 | Oc1ccc(-c2csc(Nc3ccccc3)n2)c(O)c1 [Compound 2]
61.3 | Oc1ccc(-c2csc(Nc3ncccn3)n2)cc1 [Compound 20]
87.6 | Oc1ccc(-c2csc(Nc3ccccn3)n2)cc1 [Compound 21]
87.9 | CN(c1ccccc1)c1nc(-c2ccc(O)cc2)cs1 [Compound 22]
82.9 | Oc1ccc(-c2csc(NN3CCOCC3)n2)c(O)c1 [Compound 24]
90.3 | Oc1ccc(-c2csc(N3CCOCC3)n2)c(O)c1 [Compound 25]
100 | O=C(Nc1nc(-c2ccc(O)cc2O)cs1)c1ccccc1 [Compound 26]
80.5 | CCN(CC)CCNc1nc(-c2ccc(O)cc2O)cs1 [Compound 28]
